# Source: PMC10415494, “Ga(III) pyridinecarboxylate complexes: potential analogues of the second generation of therapeutic Ga(III) complexes?” (Journal of Biological Inorganic Chemistry, 2023)
# Where two headings read alike, the source gives them in different places.
# Assays:
# [1] = test system: HeLa (human cervical adenocarcinoma); test: MTS antiproliferative assay; conditions: Homo sapiens, HeLa, 72 h, read-out: Cytotoxic activity IC50 HeLa
# [2] = test system: Jurkat (human leukaemic T cell lymphoma); test: MTS antiproliferative assay; conditions: Homo sapiens, Jurkat, 72 h, read-out: Cytotoxic activity IC50 Jurkat
# [3] = test system: HCT116 (human colorectal carcinoma); test: MTS antiproliferative assay; conditions: Homo sapiens, HCT-116, 72 h, read-out: Cytotoxic activity IC50 HCT116
# [4] = test system: MDA-MB-231 (human mammary gland adenocarcinoma); test: MTS antiproliferative assay; conditions: Homo sapiens, MDA-MB-231, 72 h, read-out: Cytotoxic activity IC50 MDA-MB-231
# [5] = test system: PaTu 8902 (human pancreatic adenocarcinoma); test: MTS antiproliferative assay; conditions: Homo sapiens, PaTu 8902, 72 h, read-out: Cytotoxic activity IC50 PaTu 8902
# [6] = test system: A2058 (human metastatic melanoma); test: MTS antiproliferative assay; conditions: Homo sapiens, A2058, 72 h, read-out: Cytotoxic activity IC50 A2058
# [7] = MTS antiproliferative assay (non-cancer cells); conditions: human
# [8] = molecular target: T1, bovine serum albumin (BSA) (Bos taurus, UniProt P02769); test: BSA fluorescence quenching (Stern-Volmer); type: binding; conditions: 0.01 M PBS buffer pH 7.4, 25 °C, λex = 280 nm
# T1 construct: purchased Sigma-Aldrich Chemicals
# T1 sequence (P02769 25-607): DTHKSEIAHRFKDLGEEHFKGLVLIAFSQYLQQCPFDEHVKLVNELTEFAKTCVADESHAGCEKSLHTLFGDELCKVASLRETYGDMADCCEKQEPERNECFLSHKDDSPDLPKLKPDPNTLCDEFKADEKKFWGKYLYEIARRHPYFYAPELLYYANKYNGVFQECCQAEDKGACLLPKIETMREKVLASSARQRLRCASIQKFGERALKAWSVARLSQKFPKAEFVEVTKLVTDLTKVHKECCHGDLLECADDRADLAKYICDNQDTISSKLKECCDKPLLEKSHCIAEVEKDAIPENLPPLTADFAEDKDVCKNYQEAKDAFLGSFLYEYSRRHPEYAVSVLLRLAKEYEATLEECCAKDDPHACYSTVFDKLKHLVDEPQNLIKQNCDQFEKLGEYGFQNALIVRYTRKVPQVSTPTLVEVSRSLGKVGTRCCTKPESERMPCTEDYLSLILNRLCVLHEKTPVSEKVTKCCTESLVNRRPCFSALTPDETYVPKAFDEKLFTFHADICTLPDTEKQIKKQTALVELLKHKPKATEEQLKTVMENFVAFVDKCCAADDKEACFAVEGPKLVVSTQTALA
# Description: Fluorescence measurements were carried out on a Varian Cary Eclipse spectrofluorometer. The quenching studies of BSA with the Ga(III) complexes were investigated to determine whether they were able to quench fluorescence of BSA. All measurements were performed at 25 °C in 0.01 M PBS buffer (pH 7.4). The fluorescence spectra were measured at an excitation wavelength of 280 nm, with a slit width of 10 nm for the excitation and emission beams, in the range of 300–450 nm and analysed according to the classical Stern–Volmer Equation: F0/F=1+KSVQ where F0 and F are the fluorescence intensities in the absence and the presence of the quencher, respectively, KSV is the Stern–Volmer constant, and [Q] is the concentration of quencher.
# [9] = test system: Alternaria alternata (A. alternata) CCM F-128; test: Growth of filamentous fungi, macrodilution method on solidified PDA (colony diameter); type: cell-based; conditions: Alternaria alternata, read-out: IC50 A. alternata
# [10] = test system: Microsporum gypseum (M. gypseum) CCM F-8342; test: as above; type: cell-based; conditions: Nannizzia gypsea, read-out: IC50 M. gypseum
# [11] = test system: Rhizopus oryzae (R. oryzae) CCM F-8284; test: as above; type: cell-based; conditions: Rhizopus arrhizus, read-out: IC50 R. oryzae
# [12] = test system: Staphylococcus aureus (S. aureus) CCM 3953; test: Antimicrobial activity, macrodilution method (growth by A590); type: cell-based; conditions: Staphylococcus aureus
# [13] = test system: Pseudomonas aeruginosa (P. aeruginosa) CCM 1959; test: as above; type: cell-based; conditions: Pseudomonas aeruginosa
# [14] = test system: Escherichia coli (E. coli) CCM 3988; test: as above; type: cell-based; conditions: Escherichia coli
# [15] = test system: Candida parapsilosis (C. parapsilosis) ATCC 22019; test: Antimicrobial activity, macrodilution method (yeast, growth by A590); type: cell-based; conditions: Lodderomyces parapsilosis
# [16] = Filamentous fungi, solidified potato-dextrose growth medium
smiles,measurement,setting,value
"O=C(O)c1ccccn1 [HPic, picolinic acid]",IC50,[1],> 200 µM
same,IC50,[2],> 200 µM
same,IC50,[3],> 200 µM
same,IC50,[4],> 200 µM
same,IC50,[5],> 200 µM
same,IC50,[6],> 200 µM
same,IC50 at 72 h,[7]; human dermal fibroblasts (HDF),> 200 µM
same,Stern–Volmer binding constant Ksv BSA,[8],6800 M⁻¹
same,IC50,[9]; [16],> 500 µM
same,IC50,[10]; [16],> 500 µM
same,IC50,[11]; solidified potato-dextrose growth medium,> 500 µM
same,IC50,"[12]; CCM3953, Bacteria, MHB, 37 °C, DMSO max 1.0 vol. %, read-out: IC50 S. aureus",> 500 µM
same,IC50,"[13]; CCM1959, Bacteria, MHB, 37 °C, DMSO max 1.0 vol. %, read-out: IC50 P. aeruginosa",> 500 µM
same,IC50,"[14]; CCM3988, Bacteria, MHB, 37 °C, DMSO max 1.0 vol. %, read-out: IC50 E. coli",> 500 µM
same,IC50,"[15]; ATCC22019, Yeast, Sabouraud's growth medium, 37 °C, read-out: IC50 C. parapsilosis",> 500 µM
"O=C(O)c1cccc(C(=O)O)n1 [H2Dpic, dipicolinic acid]",IC50,[1],> 200 µM
same,IC50,[2],> 200 µM
same,IC50,[3],> 200 µM
same,IC50,[4],> 200 µM
same,IC50,[5],> 200 µM
same,IC50,[6],> 200 µM
same,IC50 at 72 h,[7],> 200 µM
same,Stern–Volmer binding constant Ksv BSA,[8],28700 M⁻¹
same,IC50,[9],> 1000 µM
same,IC50,[10],> 1000 µM
same,IC50,[11],500 µM
same,IC50,"[12]; CCM3953, read-out: IC50 S. aureus",> 1000 µM
same,IC50,"[13]; CCM1959, read-out: IC50 P. aeruginosa",> 1000 µM
same,IC50,"[14]; CCM3988, read-out: IC50 E. coli",> 1000 µM
same,IC50,"[15]; ATCC22019, read-out: IC50 C. parapsilosis",> 1000 µM
